Results taken from patent publication US20020161202A1, “Apo-2DcR” (Genentech, Inc., priority 1997, published 2002).
Where a SMILES comes first, the peptide text is derived from it. [ ]: non-standard residue; d: D form. The star is where a group is joined. Nle = CCCC[C@H](N)C(=O)O; Cbz = O=C(OCc1ccccc1)*; CH2F = FC*

Key:
HeLa cells [1] = experiment: Effect of preincubation with inhibitors on Apo-2L-induced apoptosis in HeLa cells (FACS); type: cell-based, human; details: Apo-2L 1 μg/ml, 5 hour incubation, FIG. 12C
Method: The effects of a NF-κB inhibitor, ALLN (N-acetyl-Leu-Leu-norleucinal) and a […] inhibitor, cyclohexamide, were also tested. The HeLa cells (plated in 6-well dishes) were preincubated with PBS buffer, ALLN (Calbiochem) (40 μg/ml) or cyclohexamide (Sigma) (50 μg/ml) for 1 hour before addition of Apo-2L (1 μg/ml). After a 5 hour incubation, apoptosis was analyzed by FACS (see FIG. 12C).

HeLa cells [2] = experiment: Apoptosis induction by Apo-2 in transfected HeLa cells, FACS analysis of phosphatydilserine exposure; type: cell-based, human; details: inhibitor added at 200 μM at the time of transfection, FIG. 11C
Text: (§1) Because death domains can function as oligomerization interfaces, over-expression of receptors that contain death domains may lead to activation of signaling in the absence of ligand [Frazer et al., supra, Nagata et al., supra]. To determine whether Apo-2 was capable of inducing cell death, human 293 cells or HeLa cells (ATCC CCL 2.2) were transiently transfected by calcium phosphate precipitation (293 cells) or electroporation (HeLa cells) with a pRK5 vector or pRK5-based plasmids encoding Apo-2 and/or CrmA. When applicable, the total amount of plasmid DNA was adjusted by adding vector DNA. Apoptosis was assessed 24 hours after transfection by morphology (FIG. 11A); DNA fragmentation (FIG. 11B); or by FACS analysis of phosphatydilserine exposure (FIG. 11C) as described in Marsters et al., Curr. Biol., 6:1669 (1996).
For samples assayed by FACS, the HeLa cells were co-transfected with pRK5-CD4 as a marker for transfection and apoptosis was determined in CD4-expressing cells; FADD was co-transfected with the Apo-2 plasmid; the data are means±SEM of at least three experiments, as described in Marsters et al., Curr. Biol., 6:1669 (1996). The caspase inhibitors, DEVD-fmk (Enzyme Systems) or z-VAD-fmk (Research Biochemicals Intl.) were added at 200 μM at the time of transfection.

HeLa cells [3] = experiment: Apo-2L-induced apoptosis in HeLa cells by FACS and its inhibition by soluble Apo-2 ECD; type: cell-based, human
Method: Soluble Apo-2L ([…], prepared as described in Pitti et al., supra) was pre-incubated for 1 hour at room temperature with PBS buffer or affinity-purified Apo-2 ECD (5 μg/ml) together with anti-Flag antibody (Sigma) (1 μg/ml) and added to HeLa cells. After a 5 hour incubation, the cells were analyzed for apoptosis by FACS (as above) (FIG. 11D).

Apo-2L = experiment: Co-precipitation assay of Apo-2 ECD-Flag with poly-histidine-tagged Apo-2L; type: binding; details: Apo-2 ECD-Flag supernatant with 5 μg poly-histidine-tagged soluble Apo-2L; FIG. 10
Apo-2L, sequence (P50591 39-281 limits assumed): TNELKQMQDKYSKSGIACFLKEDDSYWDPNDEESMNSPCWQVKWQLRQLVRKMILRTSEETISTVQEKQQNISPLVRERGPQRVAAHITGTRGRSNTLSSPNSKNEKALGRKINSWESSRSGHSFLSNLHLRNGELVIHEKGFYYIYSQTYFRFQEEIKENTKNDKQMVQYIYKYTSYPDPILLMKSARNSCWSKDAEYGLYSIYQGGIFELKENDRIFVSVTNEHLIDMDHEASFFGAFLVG
Apo-2L, sequence (O14763 56-184 partner limits assumed): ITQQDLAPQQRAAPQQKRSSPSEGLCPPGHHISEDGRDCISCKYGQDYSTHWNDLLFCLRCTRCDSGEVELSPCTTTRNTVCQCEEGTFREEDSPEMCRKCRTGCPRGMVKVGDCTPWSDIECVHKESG
Method: To determine whether Apo-2 and Apo-2L interact or associate with each other, supernatants from mock-transfected 293 cells or from 293 cells transfected with Apo-2 ECD-Flag (described in Example 6 above) (5 ml) were incubated with 5 μg poly-histidine-tagged soluble Apo-2L [Pitti et al., supra] for 30 minutes at room temperature and then analyzed for complex formation by a co-precipitation assay.
The samples were subjected to immunoprecipitation using 25 μl anti-Flag conjugated agarose beads (Sigma) or Nickel-conjugated agarose beads (Qiagen). After a 1.5 hour incubation at 4° C., the beads were spun down and washed four times in phosphate buffered saline (PBS). By using anti-Flag agarose, the Apo-2L was precipitated through the Flag-tagged Apo-2 ECD; by using Nickel-agarose, the Apo-2 ECD was precipitated through the His-tagged Apo-2L. The precipitated proteins were released by boiling the beads for 5 minutes in SDS-PAGE buffer, resolved by electrophoresis on 12% polyacrylamide gels, and then detected by immunoblot with anti-Apo-2L or anti-Flag antibody (2 μg/ml) as described in Marsters et al., J. Biol. Chem., (1997).

Fas/Apo-1 ligand = molecular target: T1, Fas/Apo-1 ligand (Homo sapiens, UniProt P48023); experiment: BIACORE analysis of Apo-2 ECD; type: binding
T1 construct: purchased Alexis Biochemicals
T1 sequence (P48023 103-281 limits assumed): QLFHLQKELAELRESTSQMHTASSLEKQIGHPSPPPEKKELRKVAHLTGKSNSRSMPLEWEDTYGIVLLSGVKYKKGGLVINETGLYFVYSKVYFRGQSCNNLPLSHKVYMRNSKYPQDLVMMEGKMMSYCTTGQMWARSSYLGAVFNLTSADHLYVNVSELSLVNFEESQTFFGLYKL
Method: (§2) The binding interaction was further analyzed by purifying Apo-2 ECD from the transfected 293 cell supernatants with anti-Flag beads (see Example 6) and then analyzing the samples on a BIACORE™ instrument. The BIACORE™ analysis indicated a dissociation constant (Kd) of about 1 nM.

TNF-alpha = TNF-alpha (Homo sapiens, UniProt P01375); experiment: BIACORE analysis of Apo-2 ECD; type: binding
TNF-alpha, sequence (P01375 77-233 limits assumed): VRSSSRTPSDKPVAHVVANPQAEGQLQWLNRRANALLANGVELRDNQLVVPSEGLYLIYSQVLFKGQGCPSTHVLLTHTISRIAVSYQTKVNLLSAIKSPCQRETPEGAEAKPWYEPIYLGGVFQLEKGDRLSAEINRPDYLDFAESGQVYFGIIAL
Method: as §2

lymphotoxin-alpha = molecular target: T2, lymphotoxin-alpha (Homo sapiens, UniProt P01374); experiment: BIACORE analysis of Apo-2 ECD; type: binding
T2 sequence (P01374 35-205): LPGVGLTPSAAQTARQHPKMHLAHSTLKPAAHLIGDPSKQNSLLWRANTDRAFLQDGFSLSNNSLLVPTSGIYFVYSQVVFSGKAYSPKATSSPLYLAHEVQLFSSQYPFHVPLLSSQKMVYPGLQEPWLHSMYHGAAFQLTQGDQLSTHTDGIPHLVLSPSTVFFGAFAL
Method: as §2

Human 293 cells = experiment: Induction of apoptosis by Apo-2 transfection, morphology and DNA fragmentation; type: cell-based; details: 24 hours after transfection; morphology, DNA fragmentation; FIGS. 11A and 11B
Text: as §1

NF-κB [4] = experiment: NF-κB activation in HeLa cells transfected with receptor plasmids (electrophoretic mobility shift assay); type: cell-based, human; details: harvested 24 hours after transfection, FIG. 12A
Method: HeLa cells were transfected with pRK5 expression plasmids encoding full-length native sequence Apo-2, DR4 or Apo-3 and harvested 24 hours after transfection. […] Immunol., 153:5274-5284 (1994)], alone or together with a 50-fold excess of unlabelled probe, or with an irrelevant ^32P-labelled synthetic oligonucleotide […] NO: 13). In some samples, antibody to p65/RelA subunits of NF-κB (1 μg/ml; Santa Cruz Biotechnology) was added. DNA binding was analyzed by an electrophoretic mobility shift assay as described by Hsu et al., supra; Marsters et al., supra, and MacKay et al., supra.

NF-κB [5] = experiment: NF-κB activity in HeLa cells treated with soluble ligand; type: cell-based, human; details: 1 μg/ml, FIG. 12B

## CCCC[C@@H](C=O)NC(=O)[C@H](CC(C)C)NC(=O)[C@H](CC(C)C)NC(C)=O [ALLN, N-acetyl-Leu-Leu-norleucinal] (Ac-Leu-Leu-[Nle]-aldehyde)
HeLa cells [1]; HeLa cells preincubated 1 hour with ALLN 40 μg/ml
  level of Apo-2L-induced apoptosis: increased

## COC(=O)CC[C@H](NC(=O)[C@H](CC(=O)OC)NC(=O)OCc1ccccc1)C(=O)N[C@H](C(=O)N[C@@H](CC(=O)OC)C(=O)CF)C(C)C [DEVD-fmk]
HeLa cells [2]
  apoptosis induction by Apo-2: blocked

## C[C@@H]1C[C@@H]([C@H](O)CC2CC(=O)NC(=O)C2)C(=O)[C@@H](C)C1 [cyclohexamide]
HeLa cells [1]; HeLa cells preincubated 1 hour with cyclohexamide 50 μg/ml
  level of Apo-2L-induced apoptosis: increased

## COC(=O)C[C@H](NC(=O)[C@H](C)NC(=O)[C@@H](NC(=O)OCc1ccccc1)C(C)C)C(=O)CF [z-VAD-fmk] (Cbz-Val-Ala-Asp(OMe)-CH2F)
HeLa cells [2]
  apoptosis induction by Apo-2: blocked

## Apo-2 ECD immunoadhesin: Apo-2 ECD (amino acids 1-184) fused to the hinge and Fc region of human immunoglobulin G1 heavy chain
HeLa cells [3]; dose-response analysis of inhibition of Apo-2L-induced apoptosis, HeLa cells, FIG. 11E, read-out: half-maximal inhibition
  IC50: ~300 pM

## Apo-2 ECD: soluble Apo-2 extracellular domain (amino acid residues 1-184) fused to a C-terminal Flag epitope tag
Apo-2L
  complex formation with Apo-2L: can associate with each other
Fas/Apo-1 ligand
  binding to Fas/Apo-1 ligand: not capable of binding
TNF-alpha
  binding to TNF-alpha: not capable of binding
lymphotoxin-alpha
  binding to lymphotoxin-alpha: not capable of binding
HeLa cells [3]; Apo-2 ECD 5 μg/ml with anti-Flag antibody 1 μg/ml, pre-incubated 1 hour with Apo-2L 0.5 μ/ml, HeLa cells, FIG. 11D
  blocking of Apo-2L action (apoptosis): capable of blocking Apo-2L action

## Apo-2: full-length native sequence human Apo-2, 411 amino acid type I transmembrane protein with death domain; expressed by transfection
Human 293 cells
  apoptosis of transfected 293 cells: marked apoptosis
NF-κB [4]
  NF-κB activation upon transfection: significant NF-κB activation

## Apo-2L: Apo-2 ligand (also referred to as TRAIL), TNF family cytokine; soluble form as in Pitti et al.
NF-κB [5]
  NF-κB activation in treated HeLa cells: significant NF-κB activation
HeLa cells [3]; soluble Apo-2L 0.5 μ/ml, 5 hour incubation, FACS, FIG. 11D
  apoptosis in HeLa cells: marked apoptosis

## DR4: TNF receptor family member with cytoplasmic death domain, receptor for Apo-2 ligand; expressed by transfection [reference compound]
NF-κB [4]
  NF-κB activation upon transfection: significant NF-κB activation
